From patent US9890166B2, “Imidazopyrrolidine derivatives and their use in the treatment of disease” (NOVARTIS AG, priority 2013, dated 2018)
pIC50: −log10 of the molar value.

Columns and labels:
BRD3 (His-Brd3(20-477)) = BRD3 (His-Brd3(20-477)) (Homo sapiens (Human), UniProt Q15059); test: TR-FRET in-vitro binding assay for BRD3; conditions: single determination or n ≧ 2 independent determinations, read-out: Biochemical IC50 BRD3
Experimental: (§1) TR-FRET In-Vitro Binding Assays for BRD2, BRD3, and BRD4:
(§2) All assays were performed in 384 well microtiter plates. Each assay plate contained 8-point serial dilutions for 40 test compounds, plus 16 high- and 16 low controls. Liquid handling and incubation steps were done on an Innovadyne Nanodrop Express equipped with a robotic arm (Thermo CatX, Perkin Elmer/Caliper Twister II) and an incubator (Liconic STX40, Thermo Cytomat 2C450). The assay plates were prepared by addition of 50 nl per well of compound solution in 90% DMSO HummingBird nanodispenser (Zinsser Analytic). […] Reactions were incubated at 30° C. for 35 minutes. […] After 35 minutes incubation at 30° C., plates were measured in a Perkin Elmer EnVision multilabel reader.
(§3) Preparation of Compound Dilutions
(§4) Test compounds were dissolved in DMSO (10 mM) and transferred into 1.4 mL flat bottom or V-shaped Matrix tubes carrying a unique 2D matrix. The stock solutions were stored at […] if not used immediately. For the test procedure the vials were defrosted and identified by a scanner whereby a working sheet was generated that guided the subsequent working steps.
(§5) Compound dilutions were made in 96 well plates. This format enabled the assay of maximally 40 individual test compounds at 8 concentrations (single points) including 4 reference compounds, if desired (known BET inhibitors from the prior art, for this and other assays of the type disclosed herein). The dilution protocol included the production of “pre-dilution plates”, “master plates” and “assay plates”.
(§6) Pre-Dilution Plates: 96 polypropylene well plates were used as pre-dilution plates. A total of 4 pre-dilution plates were prepared including 10 test compounds each on the plate positions A1-A10, one standard compound at A11 and one DMSO control at A12. All dilution steps were done on a HamiltonSTAR robot.
(§7) These plates were used directly for the assay which was performed in a total volume of 13.55 μL.

MV-4-11 cells = test: Cell growth inhibition assay (CellTiter-Glo), MV-4-11; conditions: for GI50: Homo sapiens, MV4-11, read-out: MV-4-11 GI50; for MV-4-11 TGI: MV-4-11 cells, total growth inhibition, CellTiter-Glo;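 as to all read-outs here: cellular ATP luminescence after 4 days, 3-fold dilution series from 10 µM top dose, vehicle (0.1% DMSO) set to 100%, cell-free medium set to −100%, day 0 corrected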
K-562 cells = test: Cell growth inhibition assay (CellTiter-Glo), K-562; conditions: for GI50: Homo sapiens, K562, read-out: K-562 GI50; for K-562 TGI: K-562 cells, total growth inhibition, CellTiter-Glo;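 as to all read-outs here: cellular ATP measured by luminescence after 4 days of exposure, 3-fold dilution series from 10 µM, DMSO vehicle-treated cells define 100%, cell-free medium wells −100%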
BRD4 (His-Brd4(44-477)) = BRD4 (His-Brd4(44-477)) (Homo sapiens (Human), UniProt O60885); test: TR-FRET in-vitro binding assay for BRD4; conditions: single determination or n ≧ 2 independent determinations, read-out: Biochemical IC50 BRD4
Experimental: as §1, §2, §3, §4, §5, §6, §7

THP-1 cells = test: Cell growth inhibition assay (CellTiter-Glo), THP-1; conditions: for GI50: Homo sapiens, THP-1, read-out: THP-1 GI50; for THP-1 TGI: THP-1 cells, total growth inhibition, CellTiter-Glo;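 as to all read-outs here: viability read as cellular ATP luminescence after 4 days, 3-fold dilution series from 10 µM, DMSO vehicle-treated cells taken as 100%, cell-free medium wells as −100%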
[1] = biological target: CREBBP bromodomain (His-CREBBP(1081-1197)) (Homo sapiens (Human), UniProt Q92793); test: AlphaScreen in-vitro binding assay for CREBBP; conditions: single determination or n ≧ 2 independent determinations, read-out: Biochemical IC50 CREBBP
Experimental: AlphaScreen In-Vitro Binding Assay for CREBBP
In order to assess bromodomain selectivity, we set up a binding assay using the bromodomain encoded by the CREBBP gene. […] Reactions were incubated at 30° C. for 35 minutes. Subsequently 4.5 μl per well detection mix (50 mM HEPES, pH 7.5, 0.005% Tween20, 0.02% BSA, 150 mM NaCl, 45 μg/ml Ni-chelate acceptor beads, 45 μg/mIstreptavidin-donor beads) (Perkin Elmer)) were added. After 60 minutes incubation at room temperature, plates were measured in a Perkin Elmer EnVision multilabel reader. IC50 values were determined from percent inhibition values at different compound concentrations by non-linear regression analysis.
as §3, §4, §5, §6, §7

Chain of CREBBP bromodomain (His-CREBBP(1081-1197)) (Q92793 1081-1197): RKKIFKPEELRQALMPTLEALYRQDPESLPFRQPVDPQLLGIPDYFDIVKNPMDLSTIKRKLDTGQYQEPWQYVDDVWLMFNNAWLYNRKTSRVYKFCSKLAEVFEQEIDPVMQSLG
Chain of BRD3 (His-Brd3(20-477)) (Q15059 20-477): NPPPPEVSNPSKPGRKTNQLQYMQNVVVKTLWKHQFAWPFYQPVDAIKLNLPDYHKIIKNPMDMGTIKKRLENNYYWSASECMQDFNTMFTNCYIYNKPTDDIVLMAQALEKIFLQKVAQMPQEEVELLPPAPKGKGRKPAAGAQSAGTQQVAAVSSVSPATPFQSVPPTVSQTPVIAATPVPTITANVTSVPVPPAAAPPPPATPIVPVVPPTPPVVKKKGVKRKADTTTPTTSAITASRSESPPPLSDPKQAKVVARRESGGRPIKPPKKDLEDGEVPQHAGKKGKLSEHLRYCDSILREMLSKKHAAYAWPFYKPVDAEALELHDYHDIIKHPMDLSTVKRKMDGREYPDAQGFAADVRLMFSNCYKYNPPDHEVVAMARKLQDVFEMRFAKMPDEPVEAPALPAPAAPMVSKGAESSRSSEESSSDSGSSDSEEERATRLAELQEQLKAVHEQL

| Structure (SMILES) | pIC50 (BRD3 (His-Brd3(20-477))) | GI50 (MV-4-11 cells) [nM] | MV-4-11 TGI (MV-4-11 cells) [nM] | GI50 (K-562 cells) [nM] | K-562 TGI (K-562 cells) [nM] | pIC50 (BRD4 (His-Brd4(44-477))) | GI50 (THP-1 cells) [nM] | THP-1 TGI (THP-1 cells) [nM] | pIC50 [1] |
| --- | --- | --- | --- | --- | --- | --- | --- | --- | --- |
| Cc1cc(N2C(=O)c3nc(C4=CCOCC4)[nH]c3C2c2ccc(Cl)cc2)nc2c1nnn2C (stereo not drawn) [Example 162, 6-(4-chlorophenyl)-2-(3,6-dihydro-2H-pyran-4-yl)-5-(3,7-dimethyl-3H-[1,2,3]triazolo[4,5-b]pyridin-5-yl)-5,6-dihydropyrrolo[3,4-d]imidazol-4(1H)-one] | 7.89 | 4.37 | 11.12 | 41 | >7000 | 7.94 | 5.03 | 10.54 | < 4.43 |
| Cc1cc(N2C(=O)c3nc(C4CCOC4)n(C(C)C)c3[C@H]2c2ccc(Cl)cc2)cc2c1nnn2C (stereo partly drawn) [Example 172, (6R)-6-(4-chlorophenyl)-5-(1,4-dimethyl-1H-benzo[d][1,2,3]triazol-6-yl)-1-isopropyl-2-(tetrahydrofuran-3-yl)-5,6-dihydropyrrolo[3,4-d]imidazol-4(1H)-one] | 7.77 | 5.22 | 10.33 | 19.6 | >10000 | 7.89 | 6.28 | 12.26 | 6.01 |
| Cc1cc(N2C(=O)c3nc(C4CC4)n(C4COC4)c3C2c2ccc(Cl)cc2)cc2c1nnn2C (stereo not drawn) [Example 95, 6(4-chlorophenyl)-2-cyclopropyl-5-(1,4-dimethyl-1H-benzo[d][1,2,3]triazol-6-yl)-1-(oxetan-3-yl)-5,6-dihydropyrrolo[3,4-d]imidazol-4(1H)-one] | 7.54 | 28 | 42 | 85.7 | >10000 | 7.58 | 17 | 52.4 | 5.71 |
| Cc1cc(N2C(=O)c3nc(C4=CCOCC4)n(C(C)C)c3[C@H]2c2ccc(Cl)cc2)nc2c1nnn2C [Example 164, (R)-6-(4-chlorophenyl)-2-(3,6-dihydro-2H-pyran-4-yl)-5-(3,7-dimethyl-3H-[1,2,3]triazolo[4,5-b]pyridin-5-yl)-1-isopropyl-5,6-dihydropyrrolo[3,4-d]imidazol-4(1H)-one] | > 7.96 | 0.887 | 1.83 | 13.2 | >10000 | > 7.96 | 1.12 | 2.43 | 4.95 |
| Cc1cc(N2C(=O)c3nc(C4=CCOCC4)[nH]c3[C@H]2c2ccc(Cl)cc2)cn(C)c1=O [Example 152, (R)-6-(4-chlorophenyl)-2-(3,6-dihydro-2H-pyran-4-yl)-5-(1,5-dimethyl-6-oxo-1,6-dihydropyridin-3-yl)-5,6-dihydropyrrolo[3,4-d]imidazol-4(1H)-one] | 7.65 | 34.4 | 57.3 | 244 | >10000 | 7.60 | 62.7 | 135.5 | 6.28 |
| COc1ncccc1-c1nc2c([nH]1)C(c1ccc(Cl)cc1)N(c1cc(C)c3nnn(C)c3n1)C2=O (stereo not drawn) [Example 163, 6-(4-chlorophenyl)-5-(3,7-dimethyl-3H-[1,2,3]triazolo[4,5-b]pyridin-5-yl)-2-(2-methoxypyridin-3-yl)-5,6-dihydropyrrolo[3,4-d]imidazol-4(1H)-one] | 7.80 | 15.5 | 29.05 | 53.3 | >10000 | 7.89 | 15.8 | 25.75 | < 4.43 |
| Cc1cc(N2C(=O)c3nc(C)n(C4COC4)c3C2c2ccc(Cl)cc2)cc2c1nnn2C (stereo not drawn) [Example 94, 6-(4-chlorophenyl)-5-(1,4-dimethyl-1H-benzo[d][1,2,3]triazol-6-yl)-2-methyl-1-(oxetan-3-yl)-5,6-dihydropyrrolo[3,4-d]imidazol-4(1H)-one] | 7.34 | 40.6 | 68.7 | 270 | >10000 | 7.15 | 47.4 | 94.35 | 5.09 |
| Cc1cc(N2C(=O)c3nc(C4=CCOCC4)n(C4COC4)c3C2c2ccc(Cl)cc2)cc2c1nnn2C (stereo not drawn) [Example 93, 6-(4-chlorophenyl)-2-(3,6-dihydro-2H-pyran-4-yl)-5-(1,4-dimethyl-1H-benzo[d][1,2,3]triazol-6-yl)-1-(oxetan-3-yl)-5,6-dihydropyrrolo[3,4-d]imidazol-4(1H)-one] | 7.47 | 15.9 | 32 | 104 | >10000 | 7.67 | 21.2 | 69.35 | 5.57 |
| Cc1cc(N2C(=O)c3nc(C4=CCOCC4)[nH]c3C2c2ccc(Cl)cc2)cn2c(C)nnc12 (stereo not drawn) [Example 116, 6-(4-chlorophenyl)-2-(3,6-dihydro-2H-pyran-4-yl)-5-(3,8-dimethyl-[1,2,4]triazolo[4,3-a]pyridin-6-yl)-5,6-dihydropyrrolo[3,4-d]imidazol-4(1H)-one] | 7.24 | 71.5 | 117.5 | 330 | >10000 | 7.39 | 91.1 | 166 | 5.65 |
| Cc1cc(N2C(=O)c3nc(C4=CCN(C)CC4)n(C4COC4)c3C2c2ccc(Cl)cc2)cc2c1nnn2C (stereo not drawn) [Example 96, 6-(4-chlorophenyl)-5-(1,4-dimethyl-1H-benzo[d][1,2,3]triazol-6-yl)-2-(1-methyl-1,2,3,6-tetrahydropyridin-4-yl)-1-(oxetan-3-yl)-5,6-dihydropyrrolo[3,4-d]imidazol-4(1H)-one] | 7.47 | 79.3 | 120.6 | 351 | >10000 | 7.41 | 202 | 273.6 | 5.40 |
